The term EC50 denotes the concentration at which the effect is half-maximal.

For the test, the target named is Alkaline phosphatase, placental type (Homo sapiens) (UniProt P05187). The experiment in a line: activation of placental alkaline phosphatase – biochemical, uHTS hits, luminescence, selectivity assay for human IAP activator project, dose response (AID 488888). The settings on record: purified PLAP, CDP-Star luminescence, 30 min.

Structures are written as SMILES. Activity calls are given as the source filed them.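 How the source made its calls: active means mean EC50, the dose giving half of full activation, below a set limit (actives reach about 84 µM in these data); inactive means the rest.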

Sequence of Alkaline phosphatase, placental type (Homo sapiens) (P05187 whole entry, looked up): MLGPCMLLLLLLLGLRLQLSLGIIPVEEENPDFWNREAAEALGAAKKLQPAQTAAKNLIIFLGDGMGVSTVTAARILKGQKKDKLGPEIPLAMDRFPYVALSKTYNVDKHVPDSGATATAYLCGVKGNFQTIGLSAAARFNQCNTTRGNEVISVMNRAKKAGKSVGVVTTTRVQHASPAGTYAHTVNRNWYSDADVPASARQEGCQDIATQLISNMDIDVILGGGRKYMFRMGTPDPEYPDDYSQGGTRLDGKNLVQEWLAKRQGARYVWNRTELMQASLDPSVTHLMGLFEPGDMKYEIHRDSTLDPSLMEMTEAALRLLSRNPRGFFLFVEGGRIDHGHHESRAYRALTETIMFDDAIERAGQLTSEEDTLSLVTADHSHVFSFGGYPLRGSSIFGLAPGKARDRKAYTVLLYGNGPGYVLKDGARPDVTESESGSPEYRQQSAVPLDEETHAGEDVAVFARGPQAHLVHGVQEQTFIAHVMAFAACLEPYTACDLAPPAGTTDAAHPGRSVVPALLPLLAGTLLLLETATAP

Turning to `CCN(CC)c1ccc(/C=N/NC(=O)c2nnn(-c3nonc3N)c2C(C)C)c(O)c1`, the EC50 is 73.7 µM.

Regarding `COc1ccc(C2=NN(C3=NN=C(N)Cc4ncnn43)C(O)(C(F)(F)F)C2)cc1` (stereo not drawn), the EC50 is 14.4 µM. Regarding `CCn1c(C)nc2cc(C(=O)N/N=C/c3cccc(O)c3O)ccc21`, the EC50 is 10.9 µM.

Regarding `Cc1cccc(-n2ncc3c(NNC(=O)c4ccco4)ncnc32)c1`, the EC50 is 9.19 µM. To `CCc1ccc(/C=N/Nc2ncnc3nc[nH]c23)cc1` belongs 13.4 µM. Under `COc1ccccc1CNC(=O)CN(c1ccc(C)cc1)S(=O)(=O)c1c(C)noc1C` stands 88.3 µM; under `COc1ccc(CN2CCC(n3nccc3NC(=O)CCCc3ccccc3)CC2)cc1C`, 71.6 µM; under `O=C(NNC(=S)NC1CCCCC1)c1ccccc1Br`, 16.4 µM.

In the case of `CC1C(=O)NN=C1C(=O)N/N=C\c1ccc(O)cc1O` (stereo not drawn), the EC50 was 13.2 µM. To `CCC(C)(C)C1CCc2[nH]nc(C(=O)N/N=C(\C)c3ccco3)c2C1` (stereo not drawn) belongs 59.3 µM; to `Cc1nc2c3ccccc3nc(NNC(=O)CCC(=O)NCCC(C)C)n2n1`, 13.9 µM; to `O=C(N/N=C/c1c(O)ccc2ccccc12)c1[nH]ncc1Br`, 11 µM.

For `CN(C)S(=O)(=O)c1cccc(NC(=S)NNC(=O)c2cc3ccccc3cc2O)c1`, the EC50 was 13.5 µM. For `CCOc1ccc(CC(=O)NNC(=S)NC2CCCCC2)cc1OCC`, the EC50 was 20.4 µM. To `Cc1ccc(NC(=O)NNC(=O)c2cc3ccccc3cc2O)cc1` belongs 15.3 µM; to `Cc1cc(C)cc(CC(Cc2nc3ccccc3[nH]2)c2nc3ccccc3[nH]2)c1` (stereo not drawn), 82.7 µM. To `O=C(NNC(=S)NC(=O)c1ccccc1[N+](=O)[O-])c1ccccc1O` belongs 10.5 µM; to `CC(C)C(=O)NC(=S)Nc1ccccc1C(=O)Nc1ccccc1`, 9.82 µM. On to `O=C(N/N=C/c1c(F)cccc1Cl)c1cc(C2CC2)[nH]n1`, for which the concentration giving a half-maximal response (EC50) was 66.8 µM.

With `Cc1cc(C(=O)NC2CC(C)(C)Cc3c2cnn3-c2ccccc2)n[nH]1` (stereo not drawn), the EC50 is 53.1 µM. Turning to `C=CCn1c(O)c(N=Nc2ccccc2O)c2ccccc21`, the EC50 was 0.663 µM. To `COc1cc(CN2CCC(n3nccc3NC(=O)CCCc3ccccc3)CC2)ccc1F` belongs 81.4 µM; to `Cc1nc2c3ccccc3nc(NNC(=O)CCC(=O)N3CCCC(C)C3)n2n1` (stereo not drawn), 13.5 µM; to `Cc1cccc(NS(=O)(=O)c2cccc(C(=O)NNC(=O)c3ccccc3O)c2)c1`, 42.3 µM. As for `CCn1nc(C)c(CN2CCC(C(=O)Nc3cccc(-c4cccc(F)c4)c3)CC2)c1C`, the EC50 was 53.7 µM. To `COc1ccccc1CCNC(=O)C1CCN(c2nnc(C)c3c(C)n(-c4ccc(C)cc4)nc23)CC1` belongs 56 µM; to `COc1cccc(/C=N\NC(=O)C2=NNC(=O)C2C)c1O` (stereo not drawn), 7.82 µM; to `O=C(CCN1C(=O)/C(=C/c2ccccc2Cl)SC1=S)NNC(=O)c1ccccc1O`, 25.3 µM. Under `Cc1cccc(CC(Cc2nc3ccccc3[nH]2)c2nc3ccccc3[nH]2)c1` (stereo not drawn) stands 60.8 µM; under `Cc1nn(C)c(C(=O)NNC(=S)NCc2ccccc2)c1Cl`, 18.6 µM; under `O=C(Nc1ccon1)c1nc[nH]c1C(=O)NCc1ccccc1`, 15.5 µM. Under `c1ccc(-c2cccc(-c3ccccn3)n2)nc1` stands 27.1 µM; under `O=C(NNC(=S)NC(=O)c1ccccc1)c1cccnc1`, 18.7 µM. `CCOc1cccc(-c2nc(C(N)=O)c3[nH]c(=O)n(-c4cccc(Cl)c4)c3n2)c1O`: the EC50 is 1.91 µM.

Turning to `Cc1cc(Br)ccc1SCC(=O)OC/C(O)=C(\C#N)c1nc2ccccc2[nH]1`, the EC50 was 25.5 µM.

In the case of `O=c1cc(-c2ccccc2)[nH]n1-c1nc2ccccc2[nH]1`, the EC50 is 15.2 µM.

Consider `CC(C)n1cc(CN2CCC(C(=O)Nc3cccc(-c4cccc(Cl)c4)c3)CC2)cn1`, for which the EC50 was 78.1 µM.

Turning to `CCOC(=O)c1cnc(-n2nc(C)cc2C)nc1NNc1nc(C)cc(C)n1`, the EC50 was 25 µM.

For the compound `Cc1c(C(=O)N/N=C/c2c(O)ccc3ccccc23)nnn1-c1nonc1N`, the EC50 is 16.4 µM. To `C[C@@H](NC(=O)c1[nH]cnc1C(=O)Nc1ccon1)c1ccccc1` belongs 19.8 µM.

With `O=C(CCCCC(=O)NNC(=O)COc1ccccc1)NNC(=O)COc1ccccc1`, the EC50 was 12 µM. On to `CSCCC(NS(=O)(=O)c1ccccc1F)C(=O)NNC(=O)c1csc(N2CCOCC2)n1` (stereo not drawn), for which the 50% effective concentration (EC50) was 12.5 µM.

For `CC(C)Oc1ccc(CCC(=O)NNC(=S)NCc2ccccc2)cc1`, the EC50 is 21.2 µM.

On to `CC(C)(C)NC(=O)C(=O)NNC(=O)COc1ccccc1`, for which the EC50 is 35.9 µM. To `O=C(NC(=S)NNC(=O)c1ccccc1O)c1ccc(F)cc1` belongs 13.6 µM; to `Cc1ccc(O)c(/C=N/NC(=O)c2[nH]ncc2Br)c1`, 75.5 µM.

Consider `O=C1Nc2ccc(Br)cc2C12NNc1ccccc1O2` (stereo not drawn), for which the EC50 was 0.55 µM.

With `NC(CO)C(=O)NNCc1ccc(O)c(O)c1O` (stereo not drawn), the EC50 is 11.5 µM. On to `Cc1ccc(-c2cc(C(=O)N/N=C/c3ccccc3O)n[nH]2)o1`, for which the EC50 is 8.04 µM. For `COc1cc(NC(=O)NCC2CCN(Cc3ccccc3Cl)CC2)cc(OC)c1OC`, the EC50 was 64.2 µM.

On to `CCOC(=O)c1c(C)[nH]c(C(=O)N/N=C/c2cc([N+](=O)[O-])ccc2O)c1C`, for which the EC50 is 23.2 µM. Under `CN(Cc1ccccc1)C(=O)c1[nH]cnc1C(=O)Nc1nccs1` stands 17.8 µM; under `O=C(Cc1ccc(Cl)c(Cl)c1)NNC(=S)NCC1CCCO1` (stereo not drawn), 20.7 µM; under `CCOCCCNC(=O)CCC(=O)NNc1nc2ccccc2c2nc(-c3ccccc3)nn12`, 19.1 µM. Under `COc1ccc(O)c(/C=N/NC(=S)NCCc2ccccc2)c1` stands 19.1 µM; under `O=c1oc(-c2ccc(O)c(O)c2)cc2cc(O)cc(O)c12`, > 100 µM (inactive). Under `CC(=O)Nc1cccc(C(=O)NNC(=O)c2n[nH]c(=O)c3ccccc23)c1` stands 12.5 µM. On to `O=C(O)C1OC(Oc2c(-c3ccc(O)c(O)c3)oc3cc(O)cc(O)c3c2=O)C(O)C(O)C1O` (stereo not drawn), for which the EC50 is > 100 µM (inactive). On to `Cc1[nH]n(-c2nc(-c3ccccc3)cc(=O)[nH]2)c(=O)c1CCO`, for which the EC50 is 30.8 µM. Under `COc1ccc(OC)c(NC(=O)c2cc(-c3cc(C)ccc3O)n[nH]2)c1` stands 23.1 µM.

As for `CCCOCC(O)CC(CC)C(=O)NNC(=S)Nc1ccccc1` (stereo not drawn), the EC50 is 16.7 µM. With `O=c1c2ccccc2nc(N/N=C/c2c(O)ccc3ccccc23)n1O`, the EC50 was 35.2 µM. To `Cc1nc(Nc2nc3c(c(=O)[nH]2)CCC3)nc2ccccc12` belongs 18.7 µM; to `O=C(/C=C/c1cccs1)NC(=S)NNC(=O)c1ccccc1O`, 12.7 µM; to `CC(C)CC(=O)NC(=S)NNC(=O)c1ccc(NC(=O)C2CCCCC2)cc1`, 61.6 µM. To `Cc1cc(C)cc(OCC(=O)NNC(=O)c2cc(C)[nH]n2)c1` belongs 18.7 µM. Under `CC(NS(=O)(=O)c1ccc(Br)cc1)C(=O)Nc1nc2ccccc2[nH]1` (stereo not drawn) stands 14.7 µM. Regarding `Cc1cccc(OCC(=O)NNC(=O)c2ccc3nc[nH]c3c2)c1`, the EC50 is 15.6 µM. To `O=C(NNC(=S)NCc1ccco1)c1ccccc1Br` belongs 13.7 µM. In the case of `OC(c1nc2ccc(F)cc2[nH]1)C(O)c1nc2ccc(F)cc2[nH]1` (stereo not drawn), the EC50 is 10.5 µM. Regarding `Cc1nc(S/C(=C/c2ccc(-c3ccc(Cl)cc3)o2)C(=O)O)n[nH]1`, the EC50 is 13.2 µM.

Take `O=Nc1[nH]c(=O)c(/C=C(\O)c2ccccc2)nc1NO`: the EC50 was 9.75 µM. Under `COc1ccccc1CN1CCC(n2nccc2NC(=O)CCCc2ccccc2)CC1` stands 69 µM. Under `O=C(NN1C(=O)CSC1=S)C(=O)NN1C(=O)CSC1=S` stands 14.5 µM; under `CC(NC(=S)NC1CCC(C(C)(C)C)CC1)c1ccccc1` (stereo not drawn), 41.1 µM. To `CCOc1ccc(/C=N/NC(=O)c2[nH]ncc2Br)c(O)c1` belongs 11.2 µM; to `Cc1cc(OCC(=O)Nc2ncn[nH]2)ccc1Cl`, 17 µM; to `Cc1ccccc1CN1CCC(n2nccc2NC(=O)CCCc2ccccc2)CC1`, 75.2 µM. As for `CC(C)Oc1ccc(C(=O)Nc2ncn[nH]2)cc1`, the EC50 was 24.1 µM. To `CCOc1ccccc1CN1CCC(n2nccc2NC(=O)CCc2ccccc2)CC1` belongs 84 µM. To `CN(CC(=O)Nc1ccccc1F)CC(=O)Nc1ccc(F)c(F)c1F` belongs 28.4 µM. For `CCn1c(C)nc2cc(C(=O)NNC(=S)Nc3ccccc3)ccc21`, the concentration for a half-maximal effect (EC50) was 14.7 µM. To `COc1cc(NC(=O)NCC2CCN(Cc3ccccc3C)CC2)cc(OC)c1OC` belongs 78.9 µM; to `CSCCC(NS(=O)(=O)c1ccc(C)cc1)C(=O)NNC(=O)c1csc(N2CCOCC2)n1` (stereo not drawn), 16.1 µM; to `CCC(NC(=S)NC1CCCCC1)c1ccc(C(C)C)cc1` (stereo not drawn), 60 µM. Regarding `COc1cc(OC)cc(C(=O)NNC(=O)c2nn(C)c(=O)c3ccccc23)c1`, the EC50 was 13.9 µM. Under `C=CCN1C(=O)C2(NNc3ccccc3O2)c2ccccc21` (stereo not drawn) stands 0.718 µM; under `O=C(N/N=C/c1ccc(O)cc1O)C(=O)N/N=C/c1ccc(O)cc1O`, 5.73 µM; under `Cc1ccsc1C(=O)NNC(=S)NC1CCCCC1`, 14.3 µM. Under `CCOc1cc(/C=N/NC(=O)C(=O)N/N=C/c2ccc(O)c(OCC)c2)ccc1O` stands 70 µM.

As for `Cn1c(/C(C#N)=C(\O)c2ccc(Br)s2)nc2ccccc21`, the EC50 was 62.2 µM. Under `COc1ccccc1C1=NN(C2=NN=C(N)Cc3ncnn32)C(O)(C(F)(F)F)C1` (stereo not drawn) stands 12.3 µM. For the compound `Cc1cc(=O)[nH]c(-n2[nH]c3c(c2=O)CCCC3)n1`, the EC50 is 13.6 µM. To `O=C(O)c1ccccc1C(=O)Nc1cc(-c2ccccc2)[nH]n1` belongs > 100 µM (inactive); to `CC(C)(C)OC(=O)N1CCC(NC(=O)c2[nH]cnc2C(=O)Nc2ccon2)CC1`, 15.2 µM; to `Cc1ccc(S(=O)(=O)NCCC(=O)NNC(=O)COc2ccc(Br)cc2)cc1C`, 16.7 µM. To `COc1ccccc1N(C)S(=O)(=O)c1ccc(Cl)c(C(=O)NNC(=O)c2ccccc2O)c1` belongs 19.5 µM; to `Cc1nc2c3ccccc3nc(NNC(=O)CCC(=O)NCCN3CCN(c4ccccc4)CC3)n2n1`, 15.3 µM.
